Assay: Growth and carcass measurements in lambs
Type: in vivo, lambs (sheep)
Details: 332 mg/kg
Description: Three cross-bred lambs were defaunated with compound 37 at dose rate of 332 mg per kg liveweight. The lambs were allowed four weeks to adapt to defaunation before commencing the trial. The lambs were grazed at pasture. Then control (faunated) cohorts of the defaunated group, which were matched for liveweight, were grazed in the same paddock, but separated from the defaunated lambs by a double-fence (4 meter separation). This was to prevent the faunated lambs contaminating the defaunated lambs.
At 16 weeks post-defaunation both groups of the lambs were sacrificed and measurements taken.
Also shown is the cross-sectional area of the longissimus dorsi (loin eye muscle) measured between the 12th and 13th rib.

Compound: Clc1nc(Cl)nc(Nc2ccccc2Cl)n1 [Compound 37, 2,4-dichloro-6-(2-chloroanilino)-1,3,5-triazine]
- ADG, response to defaun. (vs control, p < 0.01): 72%
- Carcass dressing out percentage, response to defaun. (vs control, p < 0.01): 16%
- Loin eye muscle area, response to defaun. (vs control, p < 0.01): 26%
- ADG (average daily gain) (defaunation): 165 g/day
- Loin eye muscle area (defaunation, 16 weeks, between 12th and 13th rib): 12.5 CM^2
- Carcass dressing out percentage (defaunation, 16 weeks, cold carcass weight as percentage of liveweight): 44.5%

Reference: patent US5561131A, “Defaunation method” (Mallinckrodt Veterinary, Inc., priority 1991, dated 1996)
